pIC50: −log10 of the molar value. The source made the active and inactive calls. No cut-off for these calls is given here.
Key:
[1] = target: T1, Estrogen receptor (Mus musculus) (UniProt P19785); experiment: Induction of estrogen receptor-mediated AMPKalpha1 activation in mouse RAW264.7 cells at 20 uM in presence of PKA inhibitor H89; format: cell-based
T1 sequence (whole entry): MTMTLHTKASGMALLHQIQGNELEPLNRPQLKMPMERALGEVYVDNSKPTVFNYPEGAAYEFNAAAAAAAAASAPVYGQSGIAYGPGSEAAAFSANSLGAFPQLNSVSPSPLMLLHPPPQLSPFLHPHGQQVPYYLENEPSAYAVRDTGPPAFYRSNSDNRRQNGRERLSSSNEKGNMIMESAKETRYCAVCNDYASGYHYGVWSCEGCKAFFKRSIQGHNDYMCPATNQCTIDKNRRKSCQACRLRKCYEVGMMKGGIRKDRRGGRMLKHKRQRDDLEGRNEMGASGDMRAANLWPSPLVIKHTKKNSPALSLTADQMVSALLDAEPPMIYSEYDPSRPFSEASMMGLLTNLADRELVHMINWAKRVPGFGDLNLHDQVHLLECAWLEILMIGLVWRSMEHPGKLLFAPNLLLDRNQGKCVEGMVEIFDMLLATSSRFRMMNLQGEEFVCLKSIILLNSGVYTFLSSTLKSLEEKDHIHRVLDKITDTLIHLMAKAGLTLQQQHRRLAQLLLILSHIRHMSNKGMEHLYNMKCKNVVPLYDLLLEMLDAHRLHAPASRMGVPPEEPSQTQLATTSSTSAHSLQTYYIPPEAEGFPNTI

[2] = test system: RAW264.7; experiment: Inhibition of RANKL-induced osteoclast differentiation in mouse RAW264.7 cells assessed as decrease in size of TRAP-positive multinucleated cells after 5 days by microscopy; format: functional, cell-based
[3] = test system: Mus musculus; experiment: Anti-osteoporotic activity in Balb/c mouse assessed as inhibition of OVX-induced serum NTx level at 25 to 100 mg/kg, ip administered for 4 weeks daily by ELISA; format: functional, organism-based
[4] = test system: RAW264.7; experiment: Inhibition of RANKL-induced osteoclast differentiation in mouse RAW264.7 cells harboring ERalpha siRNA assessed as decrease in size of TRAP-positive multinucleated cells at 20 uM after 5 days by microscopy; format: functional, cell-based
[5] = test system: RAW264.7; experiment: Cytotoxicity against mouse RANKL-treated RAW264.7 cells assessed as reduction in cell viability at 10 to 40 uM after 72 hrs by MTT assay; format: cell-based; details: raw264.7, 72 h
[6] = test system: RAW264.7; experiment: Inhibition of RANKL-induced osteoclast differentiation in mouse RAW264.7 cells assessed as decrease in TRAP mRNA level at 20 uM after 24 hrs in presence of ERalpha antagonist MPP by qRT-PCR method; format: functional, cell-based
[7] = test system: RAW264.7; experiment: Inhibition of RANKL-induced bone resorption in mouse RAW264.7 cells assessed as reduction in pit formation after 7 days by optical microscopy; format: functional, cell-based
[8] = target: T1, Estrogen receptor (Mus musculus); experiment: Induction of estrogen receptor-mediated AMPKalpha1 activation in mouse RAW264.7 cells at 20 uM in presence of CAMKKbeta inhibitor STO609; format: cell-based
[9] = test system: RAW264.7; experiment: Inhibition of RANKL-induced osteoclast differentiation in mouse RAW264.7 cells assessed as decrease in c-Fos mRNA level at 20 uM after 24 hrs in presence of ERbeta antagonist PHTPP by qRT-PCR method; format: functional, cell-based
[10] = test system: RAW264.7; experiment: Inhibition of RANKL-induced osteoclast differentiation in mouse RAW264.7 cells assessed as decrease in number of TRAP-positive multinucleated cells at 20 uM after 5 days in presence of ERalpha antagonist MPP by microscopy; format: functional, cell-based
[11] = test system: Mus musculus; experiment: Anti-osteoporotic activity in Balb/c mouse assessed as inhibition of OVX-mediated decrease in trabecular bone volume in femur at 25 to 100 mg/kg, ip administered for 4 weeks daily by microcomputed tomography; format: functional, organism-based
[12] = test system: Mus musculus; experiment: Anti-osteoporotic activity in Balb/c mouse assessed as decrease in OVX-induced trabecular pattern factor in femur at 25 to 100 mg/kg, ip administered for 4 weeks daily by microcomputed tomography; format: functional, organism-based
[13] = test system: RAW264.7; experiment: Inhibition of RANKL-induced osteoclast differentiation in mouse RAW264.7 cells harboring AMPKalpha1 siRNA assessed as decrease in size of TRAP-positive multinucleated cells after 5 days by microscopy; format: functional, cell-based
[14] = target: T2, Estrogen receptor (Homo sapiens, UniProt P03372); experiment: Inhibition of fluoromone binding to recombinant human full length untagged ERalpha expressed in insect cells after 2 hrs by fluorescence polarization assay
T2 sequence (P03372 whole entry): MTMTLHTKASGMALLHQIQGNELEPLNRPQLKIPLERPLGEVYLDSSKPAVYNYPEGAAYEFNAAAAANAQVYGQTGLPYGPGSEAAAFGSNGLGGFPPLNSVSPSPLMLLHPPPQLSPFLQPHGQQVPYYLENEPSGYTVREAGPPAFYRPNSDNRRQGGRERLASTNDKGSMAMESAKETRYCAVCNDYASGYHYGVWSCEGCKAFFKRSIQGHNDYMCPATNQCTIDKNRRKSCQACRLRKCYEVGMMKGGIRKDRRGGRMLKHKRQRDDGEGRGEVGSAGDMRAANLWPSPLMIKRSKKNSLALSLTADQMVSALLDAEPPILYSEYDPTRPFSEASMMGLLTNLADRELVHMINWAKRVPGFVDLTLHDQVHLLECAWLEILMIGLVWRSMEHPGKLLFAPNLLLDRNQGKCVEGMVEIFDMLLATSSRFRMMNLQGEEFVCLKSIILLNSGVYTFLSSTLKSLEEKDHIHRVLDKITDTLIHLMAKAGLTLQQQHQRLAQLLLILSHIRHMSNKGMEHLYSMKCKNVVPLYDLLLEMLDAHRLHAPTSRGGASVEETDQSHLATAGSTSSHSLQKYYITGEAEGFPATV

[15] = test system: RAW264.7; experiment: Inhibition of NF-kappaB/p38 MAPK signaling pathway in mouse RAW264.7 cells assessed as reduction in RANKL-induced cathepsin K mRNA level after 24 hrs by qRT-PCR method; format: cell-based
[16] = test system: RAW264.7; experiment: Inhibition of RANKL-induced osteoclast differentiation in mouse RAW264.7 cells assessed as decrease in size of TRAP-positive multinucleated cells at 20 uM after 5 days in presence of ERalpha antagonist MPP by microscopy; format: functional, cell-based
[17] = test system: RAW264.7; experiment: Inhibition of NF-kappaB/p38 MAPK signaling pathway in mouse RAW264.7 cells assessed as reduction in RANKL-induced NFATc1 mRNA level after 24 hrs by qRT-PCR method; format: cell-based
[18] = test system: RAW264.7; experiment: Inhibition of NF-kappaB/p38 MAPK signaling pathway in mouse RAW264.7 cells assessed as reduction in RANKL-induced NFATc1 protein expression level after 24 hrs by Western blot method; format: cell-based
[19] = test system: RAW264.7; experiment: Inhibition of RANKL-induced osteoclast differentiation in mouse RAW264.7 cells assessed as decrease in number of TRAP-positive multinucleated cells at 20 uM after 5 days in presence of ERbeta antagonist PHTPP by microscopy; format: functional, cell-based
[20] = target: MAP kinase p38 (Mus musculus) (UniProt P47811+O08911+Q9WUI1+Q9Z1B7); experiment: Inhibition of p38 MAPK signaling pathway in mouse RAW264.7 cells assessed as reduction in RANKL-induced ERK phosphorylation at 10 to 40 uM after 30 mins by Western blot method; format: cell-based

- Activity [1]: Active
- Activity [8]: Active
- pIC50 [14]: 7.21
- inhibition [20]: inactive
Compound: COc1cc(C2Oc3c(OC)cc(/C=C/CO)cc3C2CO)ccc1O (stereo not given)
- inhibition [2]: Dose-dependent effect
- inhibition [3]: Active
- inhibition [4]: inactive
- Activity [5]: Non-Toxic
- inhibition [6]: inactive
- inhibition [7]: Dose-dependent effect
- inhibition [9]: Active
- inhibition [10]: inactive
- inhibition [11]: Active
- Activity [12]: Active
- inhibition [13]: inactive
- inhibition [15]: Dose-dependent effect
- inhibition [16]: inactive
- inhibition [17]: Dose-dependent effect
- inhibition [18]: Dose-dependent effect
- inhibition [19]: Active

— ChEMBL document CHEMBL4145608, “Dehydrodiconiferyl Alcohol Inhibits Osteoclast Differentiation and Ovariectomy-Induced Bone Loss through Acting as an Estrogen Receptor Agonist” (J Nat Prod, 2018)
